Assay results taken from patent publication US20050118624A1, “Fluorescent probes for ribosomes and method of use” (Cumbre Inc., priority 2003, published 2005).

What was measured:
[1] = system: 70S Ribosome; assay: Fluorescence polarization competition with Probe 203 bound to ribosomes; assay type: binding, E. coli; conditions: for IC50: compound titrated 400 μM to 1.5 nM, ribosome 150-200% above Kd, read-out: IC50 for competing out Probe 203
[2] = target: 70S Ribosome; assay: Fluorescence polarization titration of probe binding affinity and kinetics; design: species or system E. coli; conditions: for binding affinity compared with Probe 203 / binding kinetics compared with Probe 203: summarized in FIG. 39

Compound | binding affinity compared with Probe 203 ([2]; fluorescence polarization) | binding kinetics compared with Probe 203 ([2]; fluorescence polarization) | IC50 [1] [µM] | other results
COc1ccc(C[C@H](N)C(=O)N[C@H]2[C@@H](O)[C@H](n3cnc4c(N(C)C)ncnc43)O[C@@H]2CO)cc1 [puromycin] | – | – | – | competition with Probe 203 ([1]; antibiotic binding to more distant region of the ribosome): did not show competition
9-benzyloxycarbonylamino-4″-Bodipy FL aminoethylcarbamate erythromycin [Probe 238] | greater affinity | even slower kinetics | – | –
O=C(N[C@H](CO)[C@H](O)c1ccc([N+](=O)[O-])cc1)C(Cl)Cl [Chloramphenicol] | – | – | 19 | –
4″-Bodipy FL-aminoethylcarbamate clarithromycin [Probe 242] | greater affinity | even slower kinetics | – | –
CC[C@H]1OC(=O)[C@H](C)[C@@H](O[C@H]2C[C@@](C)(OC)[C@@H](O)[C@H](C)O2)[C@H](C)[C@@H](O[C@@H]2O[C@H](C)C[C@H](N(C)C)[C@H]2O)[C@](C)(O)C[C@@H](C)C(=O)[C@H](C)[C@@H](O)[C@]1(C)O [Erythromycin] | – | – | 0.03 | –
9-(4,4-difluoro-5,7-dimethyl-4-bora-3a,4a-diaza-s-indacene-3-propionyl)-amino-erythromycin [Probe 203] | – | – | – | incubation time to reach binding equilibrium ([2]; fluorescence polarization read at various time points): greater than a half hour; affinity for ribosomes compared with values reported in the literature for the parent erythromycin ([2]; fluorescence polarization, ribosome titration 1650 nM to 0.4 nM, buffer with 20% glycerol): slightly reduced affinity
